From article PMC11844072, “Novel 5,6-dichlorobenzimidazole derivatives as dual BRAFWT and BRAFV600E inhibitors: design, synthesis, anti-cancer activity and molecular dynamics simulations” (BMC Chemistry, 2025)

How the values were obtained:
Assay in all cases: NCI 60 single concentration growth inhibition
Type in all cases: cell-based, human
A549/ATCC = conditions: Non-small cell lung cancer; for GI%: 10 μM
Protocol: (§1) The synthesized dichlorobenzimidazoles 10a–p were assayed for their influence on divers cancer cell lines according to the method presented in the Additional file A.
(§2) 5. Screening of cytotoxic activity against a panel of sixty human tumor cell lines
(§3) The selected compounds by NCI were evaluated for their anticancer activity in a two-stage process. First, these compounds were screened against the full NCI 60 cell lines panel at a single high dose of 10 µM. Then, the output from the single dose screen is reported as a mean graph. […]
(§4) at five different minimal concentrations.
(§5) Assay protocol. The human tumor cell lines of the cancer screening panel are grown in RPMI 1640 medium containing 5% fetal bovine serum and 2 mM L-glutamine. For a typical screening experiment, cells are inoculated into 96 well microtiter plates in 100 µL at plating densities ranging from 5000 to 40,000 cells/well depending on the doubling time of individual cell lines. After cell inoculation, the microtiter plates are incubated at 37 °C, 5% CO 2, 95% air and 100% relative humidity for 24 h prior to addition of the experimental drugs.
(§6) After 24 h, two plates of each cell line are fixed in situ with TCA, to represent a measurement of the cell population for each cell line at the time of drug addition (Tz). The experimental drugs are solubilized in dimethyl sulfoxide at 400-fold the desired final maximum test concentration and stored frozen prior to use. At the time of drug addition, an aliquot of frozen concentrate is thawed and diluted to twice the desired final maximum test concentration with complete medium containing 50 µg/mL gentamicin. Additional four, 10-fold or ½ log serial dilutions are made to provide a total of five drug concentrations plus control.
(§7) Aliquots of […] of these different drug dilutions are added to the appropriate microtiter wells already containing […] of medium, resulting in the required final drug concentrations.
(§8) Following drug addition, the plates are incubated for an additional 48 h at 37 °C, 5% CO 2, 95% air, and 100% relative humidity. For adherent cells, the assay is terminated by the addition of cold TCA.
(§9) Cells are fixed in situ by the gentle addition of 50 µL of cold 50% (w/v) TCA (final concentration, 10% TCA) and incubated for 60 min at 4 °C. The supernatant is discarded, and the plates are washed five times with tap water and air dried. Sulforhodamine B (SRB) solution ([…]) at 0.4% (w/v) in 1% acetic acid is added to each well, and plates are incubated for 10 min at room temperature. After staining, unbound dye is removed by washing five times with 1% acetic acid and the plates are air dried. Bound stain is subsequently solubilized with 10 mM trizma base, and the absorbance is read on an automated plate reader at a wavelength of 515 nm. For suspension cells, the methodology is […]
(§10) the same except that the assay is terminated by fixing settled cells at the bottom of the wells by gently adding 50 µl of 80% TCA (final concentration, 16% TCA). Using the seven absorbance measurements [time zero, (Tz), control growth, (C), and test growth in the presence of drug at the five concentration levels (Ti)], the percentage growth is calculated at each of the drug concentrations […]
(§11) Percentage growth inhibition is calculated as: [(Ti Tz)/(C–Tz)] x 100 for concentrations for which Ti>/=Tz and [(Ti-Tz)/Tz] x 100 for concentrations for which Ti < Tz.
(§12) Three dose response parameters are calculated for each experimental agent. Growth […]
(§13) concentration resulting in a 50% reduction in the net protein increase (as measured by SRB staining) in control cells during the drug incubation. The drug concentration resulting in total growth inhibition (TGI) is calculated from Ti = Tz. […]
(§14) reduction in the measured protein at the end of the drug treatment as compared to that at the beginning) indicating a net loss of cells following treatment is calculated from [(Ti–Tz)/Tz] x 100 =
(§15) _50. Values are calculated for each of these three parameters if the level of activity is reached; […]

ACHN = conditions: Renal cancer; for GI%: 10 μM
Protocol: as §1, §2, §3, §4, §5, §6, §7, §8, §9, §10, §11, §12, §13, §14, §15

HCT-116 = conditions: HCT-116, Colon cancer; for GI%: 10 μM
Protocol: as §1, §2, §3, §4, §5, §6, §7, §8, §9, §10, §11, §12, §13, §14, §15

HS 578T = conditions: Breast cancer; for GI%: 10 μM
Protocol: as §1, §2, §3, §4, §5, §6, §7, §8, §9, §10, §11, §12, §13, §14, §15

KM12 = conditions: KM12, Colon cancer; for GI%: 10 μM
Protocol: as §1, §2, §3, §4, §5, §6, §7, §8, §9, §10, §11, §12, §13, §14, §15

M14 = conditions: M14, Melanoma; for GI%: 10 μM
Protocol: as §1, §2, §3, §4, §5, §6, §7, §8, §9, §10, §11, §12, §13, §14, §15

MCF7 = conditions: MCF7, Breast cancer; for GI%: 10 μM
Protocol: as §1, §2, §3, §4, §5, §6, §7, §8, §9, §10, §11, §12, §13, §14, §15

MDA-MB-468 = conditions: MDA-MB-468, Breast cancer; for GI%: 10 μM
Protocol: as §1, §2, §3, §4, §5, §6, §7, §8, §9, §10, §11, §12, §13, §14, §15

MOLT-4 = conditions: MOLT-4, Leukemia; for GI%: 10 μM
Protocol: as §1, §2, §3, §4, §5, §6, §7, §8, §9, §10, §11, §12, §13, §14, §15

NCI-H226 = conditions: NCI-H226, Non-small cell lung cancer; for GI%: 10 μM
Protocol: as §1, §2, §3, §4, §5, §6, §7, §8, §9, §10, §11, §12, §13, §14, §15

NCI-H23 = conditions: NCI-H23, Non-small cell lung cancer; for GI%: 10 μM
Protocol: as §1, §2, §3, §4, §5, §6, §7, §8, §9, §10, §11, §12, §13, §14, §15

PC-3 = conditions: PC-3, Prostate cancer; for GI%: 10 μM
Protocol: as §1, §2, §3, §4, §5, §6, §7, §8, §9, §10, §11, §12, §13, §14, §15

RXF 393 = conditions: RXF 393, Renal cancer; for GI%: 10 μM
Protocol: as §1, §2, §3, §4, §5, §6, §7, §8, §9, §10, §11, §12, §13, §14, §15

SF-268 = conditions: SF-268, CNS cancer; for GI%: 10 μM
Protocol: as §1, §2, §3, §4, §5, §6, §7, §8, §9, §10, §11, §12, §13, §14, §15

SF-295 = conditions: SF-295, CNS cancer; for GI%: 10 μM
Protocol: as §1, §2, §3, §4, §5, §6, §7, §8, §9, §10, §11, §12, §13, §14, §15

SK-MEL-28 = conditions: SK-MEL-28, Melanoma; for GI%: 10 μM
Protocol: as §1, §2, §3, §4, §5, §6, §7, §8, §9, §10, §11, §12, §13, §14, §15

SK-MEL-2 = conditions: SK-MEL-2, Melanoma; for GI%: 10 μM
Protocol: as §1, §2, §3, §4, §5, §6, §7, §8, §9, §10, §11, §12, §13, §14, §15

SK-OV-3 = conditions: SK-OV-3, Ovarian cancer; for GI%: 10 μM
Protocol: as §1, §2, §3, §4, §5, §6, §7, §8, §9, §10, §11, §12, §13, §14, §15

SN12C = conditions: Renal cancer; for GI%: 10 μM
Protocol: as §1, §2, §3, §4, §5, §6, §7, §8, §9, §10, §11, §12, §13, §14, §15

SR = conditions: Leukemia, 10 μM
Protocol: as §1, §2, §3, §4, §5, §6, §7, §8, §9, §10, §11, §12, §13, §14, §15

T-47D = conditions: Breast cancer; for GI%: 10 μM
Protocol: as §1, §2, §3, §4, §5, §6, §7, §8, §9, §10, §11, §12, §13, §14, §15

UACC-257 = conditions: UACC-257, Melanoma; for GI%: 10 μM
Protocol: as §1, §2, §3, §4, §5, §6, §7, §8, §9, §10, §11, §12, §13, §14, §15

2-(4-((2-(2-(5,6-Dichloro-2-(4-methoxyphenyl)-1H-benzo[d]imidazol-1-yl)acetyl)hydrazono)methyl) -2-methoxyphenoxy)acetic acid [Compound 10m]
GI% (A549/ATCC): – (GI% < 5%)
GI% (ACHN): – (GI% < 5%)
GI% (HCT-116): – (GI% < 5%)
GI% (HS 578T): – (GI% < 5%)
GI% (KM12): – (GI% < 5%)
GI% (M14): – (GI% < 5%)
GI% (MCF7): 9.09%
GI% (MDA-MB-468): – (GI% < 5%)
GI% (MOLT-4): – (GI% < 5%)
GI% (NCI-H226): 11.67%
GI% (NCI-H23): 8.00%
GI% (PC-3): – (GI% < 5%)
GI% (RXF 393): – (GI% < 5%)
GI% (SF-268): – (GI% < 5%)
GI% (SF-295): – (GI% < 5%)
GI% (SK-MEL-28): – (GI% < 5%)
GI% (SK-MEL-2): – (GI% < 5%)
GI% (SK-OV-3): – (GI% < 5%)
GI% (SN12C): 5.24%
GI% (SR): – (GI% < 5%)
GI% (T-47D): – (GI% < 5%)
GI% (UACC-257): – (GI% < 5%)

2-(5-((2-(2-(5,6-Dichloro-2-(4-methoxyphenyl)-1H-benzo[d]imidazol-1-yl)acetyl)hydrazono)methyl)-2-methoxyphenoxy)acetic acid [Compound 10n]
GI% (A549/ATCC): – (GI% < 5%)
GI% (ACHN): – (GI% < 5%)
GI% (HCT-116): 6.00%
GI% (HS 578T): 6.21%
GI% (KM12): – (GI% < 5%)
GI% (M14): – (GI% < 5%)
GI% (MCF7): 14.21%
GI% (MDA-MB-468): 12.44%
GI% (MOLT-4): 10.12%
GI% (NCI-H226): 10.07%
GI% (NCI-H23): 9.67%
GI% (PC-3): 10.81%
GI% (RXF 393): – (GI% < 5%)
GI% (SF-268): – (GI% < 5%)
GI% (SF-295): – (GI% < 5%)
GI% (SK-MEL-28): – (GI% < 5%)
GI% (SK-MEL-2): – (GI% < 5%)
GI% (SK-OV-3): – (GI% < 5%)
GI% (SN12C): 5.05%
GI% (SR): 9.65%
GI% (T-47D): – (GI% < 5%)
GI% (UACC-257): – (GI% < 5%)

3-(4-((2-(2-(5,6-Dichloro-2-(4-methoxyphenyl)-1H-benzo[d]imidazol-1-yl)acetyl)hydrazono)methyl)phenoxy)propanoic acid [Compound 10i]
GI% (A549/ATCC): – (GI% < 5%)
GI% (ACHN): 5.11%
GI% (HCT-116): 11.45%
GI% (HS 578T): – (GI% < 5%)
GI% (KM12): – (GI% < 5%)
GI% (M14): – (GI% < 5%)
GI% (MCF7): 28.47%
GI% (MDA-MB-468): 10.83%
GI% (MOLT-4): – (GI% < 5%)
GI% (NCI-H226): 23.02%
GI% (NCI-H23): 13.85%
GI% (PC-3): 19.27%
GI% (RXF 393): – (GI% < 5%)
GI% (SF-268): – (GI% < 5%)
GI% (SF-295): 15.06%
GI% (SK-MEL-28): – (GI% < 5%)
GI% (SK-MEL-2): – (GI% < 5%)
GI% (SK-OV-3): 6.27%
GI% (SN12C): – (GI% < 5%)
GI% (T-47D): 27.22%
GI% (UACC-257): – (GI% < 5%)

CCOC(=O)C(C)Oc1ccc(C=NNC(=O)Cn2c(-c3ccc(OC)cc3)nc3cc(Cl)c(Cl)cc32)cc1 (centres unmarked) [Compound 10j, Ethyl-2-(4-((2-(2-(5,6-dichloro-2-(4-methoxyphenyl)-1H-benzo[d]imidazol-1-yl)acetyl) hydrazono)methyl)phenoxy)propanoate]
inhibition at 10 µM (A549/ATCC; Homo sapiens, read-out: GI%): < 5%
inhibition at 10 µM (ACHN; Homo sapiens, read-out: GI%): 18%
inhibition at 10 µM (HCT-116; Homo sapiens, read-out: GI%): 32.3%
inhibition at 10 µM (HS 578T; Homo sapiens, read-out: GI%): < 5%
inhibition at 10 µM (KM12; Homo sapiens, read-out: GI%): < 5%
inhibition at 10 µM (M14; Homo sapiens, read-out: GI%): 9.09%
inhibition at 10 µM (MCF7; Homo sapiens, read-out: GI%): 39%
inhibition at 10 µM (MDA-MB-468; Homo sapiens, read-out: GI%): 43.9%
inhibition at 10 µM (MOLT-4; Homo sapiens, read-out: GI%): 53.2%
inhibition at 10 µM (NCI-H226; Homo sapiens, read-out: GI%): 7.33%
inhibition at 10 µM (NCI-H23; Homo sapiens, read-out: GI%): 20.8%
inhibition at 10 µM (PC-3; Homo sapiens, read-out: GI%): 38.5%
inhibition at 10 µM (RXF 393; Homo sapiens, read-out: GI%): 43.7%
inhibition at 10 µM (SF-268; Homo sapiens, read-out: GI%): 14.3%
inhibition at 10 µM (SF-295; Homo sapiens, read-out: GI%): 21%
inhibition at 10 µM (SK-MEL-28; Homo sapiens, read-out: GI%): < 5%
inhibition at 10 µM (SK-MEL-2; Homo sapiens, read-out: GI%): 8.36%
inhibition at 10 µM (SK-OV-3; Homo sapiens, read-out: GI%): 5.5%
inhibition at 10 µM (SN12C; Homo sapiens, read-out: GI%): 51.9%
inhibition at 10 µM (T-47D; Homo sapiens, T47D, read-out: GI%): 72.8%
inhibition at 10 µM (UACC-257; Homo sapiens, read-out: GI%): < 5%
